US10178875B2, “Methods of modifying or imparting taste using organic compounds” (Givaudan, S.A., priority 2013, dated 2019)

Experiments:
Assay type in all cases: in vivo
bench-top tasting panel [1] = test: Umami evaluation in noodle seasoning broth; settings: Example 1 0.0001% by weight; for umami strength ranking: MSG 0.1%, 11 panelists
Procedure: (§1) Umami evaluations were done in dry noodle seasoning, chicken broth, retorted chicken broth, cheese sauce and salted potato chip applications. Each application was prepared using MSG, the experimental umami tastant and a blank which contained neither MSG nor the experimental umami tastant. Next, using a bench-top tasting panel (consisting of 7 to 14 panelists), panelists were asked to record the sensory attribute differences between the control (blank), the MSG application and the application containing the experimental umami tastant. These sensory attributes include umami, saltiness, bitterness, off-notes, mouth feel attribute, lingering attribute and flavor profile differences. [table] Turmeric was plated on salt and palm fat and blended well. Next, the remaining ingredients were added and mixed until well blended. A concentration of 1.5% of the resulting mixture in hot water generated the noodle seasoning broth. The following three samples were tasted and compared. [table]

bench-top tasting panel [2] = test: Umami evaluation in chicken broth; settings: Example 1 0.0002% by weight; for umami strength ranking: MSG 0.1%, 11 panelists
Procedure: as §1, with “[table]” left out, “chicken” for “palm”, “2.5%” for “1.5%”, “water (82° C. (180° F.))” for “water”, “broth.” for “broth. The following three samples were tasted and compared. [table]”

bench-top tasting panel [3] = test: Umami evaluation in cheese sauce; settings: Example 1 0.00025% by weight; for umami strength ranking: MSG 0.1%, 14 panelists
Procedure: as §1, with “differences. […] Annatto” for “differences. [table] Turmeric”, “on a mixture of salt, citric acid” for “on salt”, “and lactic acid” for “and palm fat”, “blended.” for “blended. A concentration of 1.5% of the resulting mixture in hot water generated the noodle seasoning broth. The following three samples were tasted and compared. [table]”

bench-top tasting panel [4] = test: Umami evaluation on salted potato chips (Example 19); settings: 1% salted potato chips; for umami strength ranking: 14 panelists
Procedure: as §1, with “differences.” for “differences. [table] Turmeric was plated on salt and palm fat and blended well. Next, the remaining ingredients were added and mixed until well blended. A concentration of 1.5% of the resulting mixture in hot water generated the noodle seasoning broth. The following three samples were tasted and compared. [table]”
One percent salt was added to a standard unsalted potato chip.

bench-top tasting panel [5] = test: Umami evaluation in retorted chicken broth (Example 20); settings: MSG 0.20%, Example 3 4 ppm, Example 13 3 ppm, Example 10 4 ppm, Example 9 3 ppm, 9 panelists
Procedure: as §1, with “differences.” for “differences. [table] Turmeric was plated on salt and palm fat and blended well. Next, the remaining ingredients were added and mixed until well blended. A concentration of 1.5% of the resulting mixture in hot water generated the noodle seasoning broth. The following three samples were tasted and compared. [table]”
The procedure for the preparation of the retorted chicken broth is the same as in example 16. Compounds from Examples 3, 9, 10 and 13 were spiked individually into the chicken broth generating six samples, as described below.

bench-top tasting panel [6] = test: Bain marie (hot water bath) test with chicken broth; settings: hot water bath 150° F. for 4 hours, MSG 0.20%, Example 3 3 ppm, Example 13 2 ppm (table), Example 10 3 ppm, Example 9 2 ppm, 7 panelists
Procedure: as §1, with “differences.” for “differences. [table] Turmeric was plated on salt and palm fat and blended well. Next, the remaining ingredients were added and mixed until well blended. A concentration of 1.5% of the resulting mixture in hot water generated the noodle seasoning broth. The following three samples were tasted and compared. [table]”
Chicken broth was prepared as previously described in example 15. Compounds from Examples 3, 9, 10 and 13 were added to the chicken broth in the concentrations described below and placed in a hot water bath (150° F.) for 4 hours prior to taste evaluation.

bench-top tasting panel [7] = test: Umami evaluation on salted potato chips (Example 22); settings: 1% salted potato chips; MSG 0.2%, Example 3 10 ppm, Example 13 10 ppm, Example 10 6 ppm, Example 9 10 ppm; 9 panelists
Procedure: as §1, with “differences.” for “differences. [table] Turmeric was plated on salt and palm fat and blended well. Next, the remaining ingredients were added and mixed until well blended. A concentration of 1.5% of the resulting mixture in hot water generated the noodle seasoning broth. The following three samples were tasted and compared. [table]”
The potato chips were prepared as previously described in example 19 and spiked with compounds from Examples 3, 9, 10 and 13 as described below.

panel of trained tasters = test: Taste evaluation in water
Procedure: A one percent cut of each compound of Examples 1-13 was prepared first. The hydrochloride salts were cut directly into water, while the free base examples were cut into ethanol. Next, 100 ml of a 1 ppm, 10 ppm and 20 ppm solution were prepared. The 1 ppm standards were prepared by addition of 0.0126 ml (cut in ethanol) or 0.01 ml (cut in water) to an amber bottle followed by dilution to 100 g total sample weight using water. The 10 and 20 ppm solutions were prepared similarly, but using 0.126 ml ethanol/0.1 ml water or 0.252 ml ethanol/0.2 ml water of the 1% cuts respectively. Next, the samples were evaluated by a panel of trained tasters.

bench-top tasting panel [8] = test: Umami evaluation in retorted chicken broth (Example 17); settings: Example 1 0.0002% by weight
Procedure: Umami evaluations were done in dry noodle seasoning, chicken broth, retorted chicken broth, cheese sauce and salted potato chip applications. Each application was prepared using MSG, the experimental umami tastant and a blank which contained neither MSG nor the experimental umami tastant. Next, using a bench-top tasting panel (consisting of 7 to 14 panelists), panelists were asked to record the sensory attribute differences between the control (blank), the MSG application and the application containing the experimental umami tastant. These sensory attributes include umami, saltiness, bitterness, off-notes, mouth feel attribute, lingering attribute and flavor profile differences. The chicken broth generated in Example 16 was transferred to a can and sealed. Prior to sealing one batch was treated with the compound of Example 1 (0.0002% by weight) and the other batch was canned without the ingredient generating a blank control sample. After sealing the cans, they were heated to 121° C. (250° F.) (under pressure) for 25 minutes, cooled to room temperature and then stored in the refrigerator for two weeks. Prior to tasting, the cans were opened and reheated to 65.5° C. (150° F.).

[9] = MSG 0.2%, Example 1 3 ppm (0.0003% by weight)

N[C@@H](CCC(=O)O)C(=O)[O-].[Na+] [MSG, monosodium glutamate, reference compound]
umami strength ranking (bench-top tasting panel [1]): MSG>Example 1>Blank Noodle Seasoning
umami strength ranking (bench-top tasting panel [2]): MSG>Example 1>Blank Chicken Broth
umami strength ranking (bench-top tasting panel [3]): MSG>Example 1>Blank Cheese Sauce
umami strength ranking (bench-top tasting panel [4]; [9]): MSG>3 ppm Example 1>1 ppm Example 1>Blank Salted Chips
umami strength ranking (bench-top tasting panel [5]): MSG>3 ppm example 9>3 ppm Example 13>4 ppm Example 3>Blank retorted chicken broth>4 ppm Example 10
umami strength ranking (bench-top tasting panel [6]): MSG>2 ppm example 9>3 ppm Example 10=4 ppm Example 13>Blank chicken broth>3 ppm Example 3
umami strength ranking (bench-top tasting panel [7]): 10 ppm Example 3>10 ppm Example 9>MSG>10 ppm Example 13>blank>6 ppm Example 10

c1ccc(SCCc2ccccn2)cc1 [Example 1, 2-(2-(PHENYLTHIO)ETHYL)PYRIDINE]
aroma (panel of trained tasters; 1 ppm in water): green
taste (panel of trained tasters; 1 ppm in water): weak to moderate umami
aroma (panel of trained tasters; 10 ppm in water): green
taste (panel of trained tasters; 10 ppm in water): moderate umami, very weak: bitter, very weak
aroma (panel of trained tasters; 20 ppm in water): Green, tomato, bell
taste (panel of trained tasters; 20 ppm in water): strong umami, very weak bitter, weak metallic
attribute noted by some panelists (bench-top tasting panel [1]): green pepper attribute
Number of panelists who noted green pepper offnote (bench-top tasting panel [1]; of 11 panelists): 2
umami strength ranking (bench-top tasting panel [1]): MSG>Example 1>Blank Noodle Seasoning
attribute noted by some panelists (bench-top tasting panel [2]): green pepper/chili off-note attribute
Number of panelists who noted green pepper offnote (bench-top tasting panel [2]; of 11 panelists): 3
umami strength ranking (bench-top tasting panel [2]): MSG>Example 1>Blank Chicken Broth
umami versus control (bench-top tasting panel [8]; retorted chicken broth (121° C., 25 minutes, stored two weeks), 10 panelists): more umami than the control
off-notes (bench-top tasting panel [8]; retorted chicken broth): pepper off-notes
Number of panelists who noted green pepper offnote (bench-top tasting panel [8]; retorted chicken broth, of 10 panelists): 4
attribute noted by some panelists (bench-top tasting panel [3]): green pepper attribute
Number of panelists who noted green pepper offnote (bench-top tasting panel [3]; of 14 panelists): 4
umami strength ranking (bench-top tasting panel [3]): MSG>Example 1>Blank Cheese Sauce
umami strength ranking (bench-top tasting panel [4]; Example 1 1 ppm (0.0001% by weight)): MSG>3 ppm Example 1>1 ppm Example 1>Blank Salted Chips
attribute noted by some panelists (bench-top tasting panel [4]; Example 1 containing samples (1 ppm and 3 ppm)): peppery attribute
Number of panelists who noted green pepper offnote (bench-top tasting panel [4]; Example 1 samples, of 14 panelists): 2
umami strength ranking (bench-top tasting panel [4]; [9]): MSG>3 ppm Example 1>1 ppm Example 1>Blank Salted Chips
